Columns and labels:
[1] = molecular target: Beta-3 adrenergic receptor (Homo sapiens, UniProt P13945); assay: DRUGMATRIX: Adrenergic beta3 radioligand binding (ligand: [125I] Cyanopindolol); assay type: cell membranes, HEK293, Membrane; details: hek293; Not Active = under 50% inhibition at 10 µM
[2] = molecular target: T1, Cholecystokinin receptor type A (Homo sapiens, UniProt P32238); assay type: cell membranes, Membrane; details: 1321-n1; note: in other assays of this panel Not Active means under 50% inhibition at 10 µM
T1 sequence (P32238 whole entry): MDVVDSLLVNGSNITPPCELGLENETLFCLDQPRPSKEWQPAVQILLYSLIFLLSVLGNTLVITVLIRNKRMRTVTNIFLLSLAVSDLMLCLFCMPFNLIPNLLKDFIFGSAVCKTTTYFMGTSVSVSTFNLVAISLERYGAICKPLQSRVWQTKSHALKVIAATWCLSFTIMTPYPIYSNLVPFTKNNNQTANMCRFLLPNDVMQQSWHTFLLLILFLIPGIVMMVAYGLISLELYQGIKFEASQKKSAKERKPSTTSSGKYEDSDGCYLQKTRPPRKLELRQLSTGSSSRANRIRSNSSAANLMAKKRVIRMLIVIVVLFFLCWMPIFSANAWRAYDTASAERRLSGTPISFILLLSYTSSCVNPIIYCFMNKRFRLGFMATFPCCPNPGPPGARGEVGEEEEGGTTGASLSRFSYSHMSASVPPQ

[3] = DRUGMATRIX: Serotonin (5-Hydroxytryptamine) 5-HT3 radioligand binding (ligand: [3H] GR-65630); assay type: cell membranes, Membrane; details: hek293; Not Active = under 50% inhibition at 10 µM
[4] = molecular target: T2, Estrogen receptor (Homo sapiens, UniProt P03372); details: sf9; note: in other assays of this panel Not Active means under 50% inhibition at 10 µM
T2 sequence (P03372 whole entry): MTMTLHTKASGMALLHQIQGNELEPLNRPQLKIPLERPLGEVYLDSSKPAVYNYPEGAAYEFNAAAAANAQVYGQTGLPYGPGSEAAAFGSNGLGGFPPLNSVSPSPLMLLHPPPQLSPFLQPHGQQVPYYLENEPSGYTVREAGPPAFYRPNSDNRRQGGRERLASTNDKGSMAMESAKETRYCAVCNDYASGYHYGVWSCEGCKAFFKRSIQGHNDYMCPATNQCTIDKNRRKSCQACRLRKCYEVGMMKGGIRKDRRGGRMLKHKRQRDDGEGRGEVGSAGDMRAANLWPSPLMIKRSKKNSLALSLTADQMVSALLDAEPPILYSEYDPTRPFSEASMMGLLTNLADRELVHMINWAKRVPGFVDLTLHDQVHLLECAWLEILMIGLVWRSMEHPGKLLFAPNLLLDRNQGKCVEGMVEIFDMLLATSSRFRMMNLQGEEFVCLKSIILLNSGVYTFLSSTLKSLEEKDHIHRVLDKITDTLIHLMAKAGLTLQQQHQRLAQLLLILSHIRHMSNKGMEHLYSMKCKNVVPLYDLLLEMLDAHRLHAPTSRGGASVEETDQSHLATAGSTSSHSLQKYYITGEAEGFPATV

[5] = molecular target: Receptor tyrosine-protein kinase erbB-2 (Homo sapiens, UniProt P04626); assay: biochemical; assay type: cell-based, Insect cells; details: insect cells;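 note: inhibition of HER2 kinase enzyme activity, measured with Poly(Glu:Tyr) as the phosphorylation substrate; in other assays of this panel Not Active means under 50% inhibition at 10 µM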
[6] = DRUGMATRIX: Nicotinic Acetylcholine radioligand binding (ligand: [125I] Epibatidine); assay type: cell membranes, Membrane; details: imr-32; Not Active = under 50% inhibition at 10 µM
[7] = DRUGMATRIX: Glutamate, NMDA, Agonism radioligand binding (ligand: [3H] CGP-39653); assay type: cell membranes, Rattus norvegicus, Wistar, Cerebral cortex, Membrane; details: Not Active = under 50% inhibition at 10 µM
[8] = DRUGMATRIX: Phorbol Ester radioligand binding (ligand: [3H] PDBu); assay type: cell membranes, Mus musculus, ICR, Brain, Membrane; details: Not Active = under 50% inhibition at 10 µM

Chain of Beta-3 adrenergic receptor (P13945 whole entry): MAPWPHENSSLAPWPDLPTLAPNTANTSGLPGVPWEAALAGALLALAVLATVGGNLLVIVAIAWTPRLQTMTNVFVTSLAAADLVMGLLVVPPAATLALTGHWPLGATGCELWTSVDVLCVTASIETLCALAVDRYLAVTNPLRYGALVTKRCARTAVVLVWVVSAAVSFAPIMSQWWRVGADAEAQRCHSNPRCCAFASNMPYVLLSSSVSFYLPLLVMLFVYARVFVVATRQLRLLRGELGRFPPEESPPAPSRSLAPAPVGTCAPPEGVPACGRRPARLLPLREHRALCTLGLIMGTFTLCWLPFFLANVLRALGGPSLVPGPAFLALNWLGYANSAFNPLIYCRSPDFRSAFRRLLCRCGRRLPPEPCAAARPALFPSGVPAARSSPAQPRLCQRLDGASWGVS

Nc1ccc(S(=O)(=O)Nc2nccs2)cc1 [SULFATHIAZOLE]
Not Active: IC50 [1] | IC50 [2] | IC50 [3] | Ki [3] | IC50 [4] | IC50 [5] | IC50 [6] | Ki [6] | IC50 [7] | Ki [7] | IC50 [8] | Ki [8]

COc1ccc(CN2CCNCC2)c(OC)c1OC [TRIMETAZIDINE]
Not Active: IC50 [1] | IC50 [2] | IC50 [3] | Ki [3] | IC50 [4] | IC50 [5] | IC50 [6] | Ki [6] | IC50 [7] | Ki [7] | IC50 [8] | Ki [8]

COc1cc(C(=O)NS(=O)(=O)c2ccccc2C)ccc1Cc1cn(C)c2ccc(NC(=O)OC3CCCC3)cc12 [ZAFIRLUKAST]
Not Active: IC50 [1] | IC50 [2] | IC50 [3] | Ki [3] | IC50 [4] | IC50 [5] | IC50 [6] | Ki [6] | IC50 [7] | Ki [7] | IC50 [8] | Ki [8]

CN[C@@H]1[C@H](O)[C@H](NC)[C@H]2O[C@@]3(O)C(=O)C[C@@H](C)O[C@H]3O[C@@H]2[C@H]1O [SPECTINOMYCIN]
Not Active: IC50 [1] | IC50 [2] | IC50 [3] | Ki [3] | IC50 [4] | IC50 [5] | IC50 [6] | Ki [6] | IC50 [7] | Ki [7] | IC50 [8] | Ki [8]

O=P(O)(O)C(O)(Cc1cccnc1)P(=O)(O)O [RISEDRONIC ACID]
Not Active: IC50 [1] | IC50 [2] | IC50 [3] | Ki [3] | IC50 [4] | IC50 [5] | IC50 [6] | Ki [6] | IC50 [7] | Ki [7] | IC50 [8] | Ki [8]

COc1ccc(/C=C/C(=O)Nc2ccccc2C(=O)O)cc1OC
Not Active: IC50 [1] | IC50 [2] | IC50 [3] | Ki [3] | IC50 [4] | IC50 [5] | IC50 [6] | Ki [6] | IC50 [7] | Ki [7] | IC50 [8] | Ki [8]

CCOC(N)=O
Not Active: IC50 [1] | IC50 [2] | IC50 [3] | Ki [3] | IC50 [4] | IC50 [5] | IC50 [6] | Ki [6] | IC50 [7] | Ki [7] | IC50 [8] | Ki [8]

C#CCN(C)[C@H](C)Cc1ccccc1 [SELEGILINE]
Not Active: IC50 [1] | IC50 [2] | IC50 [3] | Ki [3] | IC50 [4] | IC50 [5] | IC50 [6] | Ki [6] | IC50 [7] | Ki [7] | IC50 [8] | Ki [8]

C[C@@H]1C[C@H]2[C@@H]3CCC4=CC(=O)C=C[C@]4(C)C3=CC[C@]2(C)[C@H]1C(=O)CN1CCN(c2cc(N3CCCC3)nc(N3CCCC3)n2)CC1 [TIRILAZAD]
Not Active: IC50 [1] | IC50 [2] | IC50 [3] | Ki [3] | IC50 [4] | IC50 [5] | IC50 [6] | Ki [6] | IC50 [7] | Ki [7] | IC50 [8] | Ki [8]

COc1ncnc(NS(=O)(=O)c2ccc(N)cc2)c1OC [SULFADOXINE]
Not Active: IC50 [1] | IC50 [2] | IC50 [3] | Ki [3] | IC50 [4] | IC50 [5] | IC50 [6] | Ki [6] | IC50 [7] | Ki [7] | IC50 [8] | Ki [8]

STANNOUS FLUORIDE
Not Active: IC50 [1] | Ki [1] | IC50 [2] | Ki [2] | IC50 [3] | Ki [3] | IC50 [4] | Ki [4] | IC50 [5] | Ki [5] | IC50 [6] | Ki [6] | IC50 [7] | Ki [7] | IC50 [8] | Ki [8]

CC1=C(CC(=O)O)c2cc(F)ccc2/C1=C\c1ccc(S(C)(=O)=O)cc1 [EXISULIND]
Not Active: IC50 [1] | IC50 [2] | IC50 [3] | Ki [3] | IC50 [4] | IC50 [5] | IC50 [6] | Ki [6] | IC50 [7] | Ki [7] | IC50 [8] | Ki [8]

NC[C@H]1O[C@H](O[C@H]2[C@H](O)[C@@H](O[C@H]3O[C@H](CO)[C@@H](O)[C@H](N)[C@H]3O)[C@H](N)C[C@@H]2N)[C@H](N)C[C@@H]1O [TOBRAMYCIN]
Not Active: IC50 [1] | IC50 [2] | IC50 [3] | Ki [3] | IC50 [4] | IC50 [5] | IC50 [6] | Ki [6] | IC50 [7] | Ki [7] | IC50 [8] | Ki [8]
